According to PubChem BioAssay (NCI):
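96-well plates; 48 h exposure; 5 concentrations. Endpoints by linear interpolation between flanking doses. Not reached: highest tested concentration assigned. GI50: concentration for 50% inhibition of growth. At the TGI there is no net growth.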

Legend:
Assay in all cases: DTP human tumour cell line panel, 48 h
NCI-H460 lung = system: NCI-H460 lung
HT29 colon = system: HT29 colon
A498 renal = system: A498 renal
SR leukemia = system: SR leukemia
T-47D breast = system: T-47D breast
HS 578T breast = system: HS 578T breast
K-562 leukemia = system: K-562 leukemia
COLO 205 colon = system: COLO 205 colon
OVCAR-3 ovarian = system: OVCAR-3 ovarian
SNB-19 CNS = system: SNB-19 CNS
SK-MEL-2 melanoma = system: SK-MEL-2 melanoma
SNB-75 CNS = system: SNB-75 CNS
NCI-H522 lung = system: NCI-H522 lung
PC-3 prostate = system: PC-3 prostate
SK-OV-3 ovarian = system: SK-OV-3 ovarian
UACC-257 melanoma = system: UACC-257 melanoma
U251 CNS = system: U251 CNS
LOX IMVI melanoma = system: LOX IMVI melanoma
MALME-3M melanoma = system: MALME-3M melanoma
NCI-H226 lung = system: NCI-H226 lung
HCT-15 colon = system: HCT-15 colon
UO-31 renal = system: UO-31 renal
OVCAR-4 ovarian = system: OVCAR-4 ovarian
SN12C renal = system: SN12C renal
786-0 renal = system: 786-0 renal
SK-MEL-5 melanoma = system: SK-MEL-5 melanoma
RXF 393 renal = system: RXF 393 renal
TK-10 renal = system: TK-10 renal
EKVX NSCLC = system: EKVX NSCLC
OVCAR-8 ovarian = system: OVCAR-8 ovarian
OVCAR-5 ovarian = system: OVCAR-5 ovarian
BT-549 breast = system: BT-549 breast
ACHN renal = system: ACHN renal
HOP-92 NSCLC = system: HOP-92 NSCLC
SK-MEL-28 melanoma = system: SK-MEL-28 melanoma
MDA-MB-231 breast = system: MDA-MB-231 breast
A549 NSCLC = system: A549 NSCLC
IGROV1 ovarian = system: IGROV1 ovarian
CCRF-CEM leukemia = system: CCRF-CEM leukemia
NCI-H23 lung = system: NCI-H23 lung
MOLT-4 leukemia = system: MOLT-4 leukemia
HOP-62 NSCLC = system: HOP-62 NSCLC
CAKI-1 renal = system: CAKI-1 renal
MCF7 breast = system: MCF7 breast
SF-295 CNS = system: SF-295 CNS
NCI/ADR-RES ovarian = system: NCI/ADR-RES ovarian
DU-145 prostate = system: DU-145 prostate
UACC-62 melanoma = system: UACC-62 melanoma
HCC-2998 colon = system: HCC-2998 colon
HL-60(TB) leukemia = system: HL-60(TB) leukemia
RPMI-8226 leukemia = system: RPMI-8226 leukemia
MDA-MB-435 = system: MDA-MB-435
HCT-116 colon = system: HCT-116 colon
M14 melanoma = system: M14 melanoma
SF-539 CNS = system: SF-539 CNS

Question: For `Cc1cc(O)c(C2=NN(c3ccc(S(N)(=O)=O)cc3)C(c3ccccc3Cl)C2)cc1Cl` (stereo not given), which GI50 (NCI-H460 lung) is on record?
Answer: 2.16 µM

Question: And the TGI (NCI-H460 lung)?
Answer: 4.21 µM

Question: And the GI50 (HT29 colon)?
Answer: 1.92 µM

Question: What about the TGI (HT29 colon) of the same compound?
Answer: 3.63 µM

Question: And the GI50 (A498 renal)?
Answer: 5.01 µM

Question: And the TGI (A498 renal)?
Answer: 20.5 µM

Question: What about the GI50 (SR leukemia) of the same compound?
Answer: 2.97 µM

Question: What about the TGI (SR leukemia) of the same compound?
Answer: > 100 µM

Question: What about the GI50 (T-47D breast) of the same compound?
Answer: 2.81 µM

Question: What about the TGI (T-47D breast) of the same compound?
Answer: 10.3 µM

Question: And the GI50 (HS 578T breast)?
Answer: 3.28 µM

Question: And the TGI (HS 578T breast)?
Answer: > 100 µM

Question: What about the GI50 (K-562 leukemia) of the same compound?
Answer: 3.26 µM

Question: What about the TGI (K-562 leukemia) of the same compound?
Answer: > 100 µM

Question: And the GI50 (COLO 205 colon)?
Answer: 1.81 µM

Question: And the TGI (COLO 205 colon)?
Answer: 3.31 µM

Question: What about the GI50 (OVCAR-3 ovarian) of the same compound?
Answer: 1.89 µM

Question: And the TGI (OVCAR-3 ovarian)?
Answer: 3.58 µM

Question: And the GI50 (SNB-19 CNS)?
Answer: 3.54 µM

Question: And the TGI (SNB-19 CNS)?
Answer: 16.3 µM

Question: And the GI50 (SK-MEL-2 melanoma)?
Answer: 11.9 µM

Question: What about the TGI (SK-MEL-2 melanoma) of the same compound?
Answer: 31 µM

Question: And the GI50 (SNB-75 CNS)?
Answer: 2.23 µM

Question: And the TGI (SNB-75 CNS)?
Answer: 8.83 µM

Question: What about the GI50 (NCI-H522 lung) of the same compound?
Answer: 1.89 µM

Question: What about the TGI (NCI-H522 lung) of the same compound?
Answer: 3.97 µM

Question: What about the GI50 (PC-3 prostate) of the same compound?
Answer: 1.58 µM

Question: What about the TGI (PC-3 prostate) of the same compound?
Answer: 3.32 µM

Question: And the GI50 (SK-OV-3 ovarian)?
Answer: 3.63 µM

Question: What about the TGI (SK-OV-3 ovarian) of the same compound?
Answer: 10.4 µM

Question: And the GI50 (UACC-257 melanoma)?
Answer: 11.8 µM

Question: What about the TGI (UACC-257 melanoma) of the same compound?
Answer: 79.6 µM

Question: And the GI50 (U251 CNS)?
Answer: 2.25 µM

Question: What about the TGI (U251 CNS) of the same compound?
Answer: 5.02 µM

Question: And the GI50 (LOX IMVI melanoma)?
Answer: 1.78 µM

Question: What about the TGI (LOX IMVI melanoma) of the same compound?
Answer: 3.21 µM

Question: And the GI50 (MALME-3M melanoma)?
Answer: 2.62 µM

Question: What about the TGI (MALME-3M melanoma) of the same compound?
Answer: 6.46 µM

Question: And the GI50 (NCI-H226 lung)?
Answer: 3.02 µM

Question: And the TGI (NCI-H226 lung)?
Answer: 9.44 µM

Question: What about the GI50 (HCT-15 colon) of the same compound?
Answer: 3.69 µM

Question: And the TGI (HCT-15 colon)?
Answer: 16.6 µM

Question: And the GI50 (UO-31 renal)?
Answer: 2.66 µM

Question: What about the TGI (UO-31 renal) of the same compound?
Answer: 16.2 µM

Question: And the GI50 (OVCAR-4 ovarian)?
Answer: 2.73 µM

Question: And the TGI (OVCAR-4 ovarian)?
Answer: 8.48 µM

Question: What about the GI50 (SN12C renal) of the same compound?
Answer: 2.55 µM

Question: What about the TGI (SN12C renal) of the same compound?
Answer: 6.32 µM

Question: And the GI50 (786-0 renal)?
Answer: 2.25 µM

Question: What about the TGI (786-0 renal) of the same compound?
Answer: 4.52 µM

Question: And the GI50 (SK-MEL-5 melanoma)?
Answer: 3.85 µM

Question: What about the TGI (SK-MEL-5 melanoma) of the same compound?
Answer: 12.3 µM

Question: What about the GI50 (RXF 393 renal) of the same compound?
Answer: 3.09 µM

Question: And the TGI (RXF 393 renal)?
Answer: 8.22 µM

Question: And the GI50 (TK-10 renal)?
Answer: 2.64 µM

Question: What about the TGI (TK-10 renal) of the same compound?
Answer: 5.86 µM

Question: What about the GI50 (EKVX NSCLC) of the same compound?
Answer: 1.95 µM

Question: What about the TGI (EKVX NSCLC) of the same compound?
Answer: 4.6 µM

Question: And the GI50 (OVCAR-8 ovarian)?
Answer: 2.94 µM

Question: And the TGI (OVCAR-8 ovarian)?
Answer: 11.2 µM

Question: What about the GI50 (OVCAR-5 ovarian) of the same compound?
Answer: 1.74 µM

Question: And the TGI (OVCAR-5 ovarian)?
Answer: 3.3 µM

Question: And the GI50 (BT-549 breast)?
Answer: 2.16 µM

Question: What about the TGI (BT-549 breast) of the same compound?
Answer: 4.74 µM

Question: What about the GI50 (ACHN renal) of the same compound?
Answer: 3.34 µM

Question: What about the TGI (ACHN renal) of the same compound?
Answer: 11 µM

Question: And the GI50 (HOP-92 NSCLC)?
Answer: 1.94 µM

Question: And the TGI (HOP-92 NSCLC)?
Answer: 6.32 µM

Question: And the GI50 (SK-MEL-28 melanoma)?
Answer: 3.39 µM

Question: What about the TGI (SK-MEL-28 melanoma) of the same compound?
Answer: 12.3 µM

Question: What about the GI50 (MDA-MB-231 breast) of the same compound?
Answer: 2.14 µM

Question: What about the TGI (MDA-MB-231 breast) of the same compound?
Answer: 4.52 µM

Question: What about the GI50 (A549 NSCLC) of the same compound?
Answer: 3.82 µM

Question: What about the TGI (A549 NSCLC) of the same compound?
Answer: 19.3 µM

Question: And the GI50 (IGROV1 ovarian)?
Answer: 2.58 µM

Question: What about the TGI (IGROV1 ovarian) of the same compound?
Answer: 14 µM

Question: What about the GI50 (CCRF-CEM leukemia) of the same compound?
Answer: 4.81 µM

Question: What about the TGI (CCRF-CEM leukemia) of the same compound?
Answer: > 100 µM

Question: What about the GI50 (NCI-H23 lung) of the same compound?
Answer: 1.79 µM

Question: And the TGI (NCI-H23 lung)?
Answer: 3.58 µM

Question: And the GI50 (MOLT-4 leukemia)?
Answer: 4.04 µM

Question: What about the TGI (MOLT-4 leukemia) of the same compound?
Answer: > 100 µM

Question: And the GI50 (HOP-62 NSCLC)?
Answer: 2.03 µM

Question: And the TGI (HOP-62 NSCLC)?
Answer: 4.16 µM

Question: And the GI50 (CAKI-1 renal)?
Answer: 1.78 µM

Question: What about the TGI (CAKI-1 renal) of the same compound?
Answer: 3.99 µM

Question: What about the GI50 (MCF7 breast) of the same compound?
Answer: 1.75 µM

Question: And the TGI (MCF7 breast)?
Answer: 3.33 µM

Question: What about the GI50 (SF-295 CNS) of the same compound?
Answer: 1.59 µM

Question: And the TGI (SF-295 CNS)?
Answer: 3.18 µM

Question: And the GI50 (NCI/ADR-RES ovarian)?
Answer: 2.7 µM

Question: And the TGI (NCI/ADR-RES ovarian)?
Answer: 6.85 µM

Question: And the GI50 (DU-145 prostate)?
Answer: 2.01 µM

Question: What about the TGI (DU-145 prostate) of the same compound?
Answer: 3.85 µM

Question: What about the GI50 (UACC-62 melanoma) of the same compound?
Answer: 3.71 µM

Question: And the TGI (UACC-62 melanoma)?
Answer: 14.4 µM

Question: What about the GI50 (HCC-2998 colon) of the same compound?
Answer: 2.1 µM

Question: And the TGI (HCC-2998 colon)?
Answer: 3.91 µM

Question: And the GI50 (HL-60(TB) leukemia)?
Answer: 3.44 µM

Question: What about the TGI (HL-60(TB) leukemia) of the same compound?
Answer: > 100 µM

Question: And the GI50 (RPMI-8226 leukemia)?
Answer: 2.98 µM

Question: What about the TGI (RPMI-8226 leukemia) of the same compound?
Answer: 8.35 µM

Question: And the GI50 (MDA-MB-435)?
Answer: 1.85 µM

Question: And the TGI (MDA-MB-435)?
Answer: 3.92 µM

Question: And the GI50 (HCT-116 colon)?
Answer: 1.76 µM

Question: What about the TGI (HCT-116 colon) of the same compound?
Answer: 3.15 µM

Question: What about the GI50 (M14 melanoma) of the same compound?
Answer: 1.85 µM

Question: What about the TGI (M14 melanoma) of the same compound?
Answer: 3.43 µM

Question: And the GI50 (SF-539 CNS)?
Answer: 1.79 µM

Question: What about the TGI (SF-539 CNS) of the same compound?
Answer: 3.25 µM
